Data as given in patent US9169260B2 (MERCK SHARP & DOHME CORP., priority 2011, dated 2015).
Where two headings read alike, the source gives them in different places.

Target: GST tagged IRAK-4 (Homo sapiens (Human), UniProt Q9NWZ3)
Assay: IRAK-4 Kinase Assay (IMAP fluorescence polarization)
Format: biochemical
Summary of the method: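 Activity was read by IMAP fluorescence polarization, where phosphopeptide binding to M(III) nanoparticles raises FP. The 30-minute, 25° C reaction used 100 μM ATP, 100 nM RP7030 substrate and 0.5 nM GST-IRAK-4 in pH 7.2 Tris buffer with MgCl2, DTT and Tween 20.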

[1] = 100 μM ATP, 30 minutes at 25° C.
[2] = 100 μM ATP, 30 minutes at 25° C., μM

Sequence of GST tagged IRAK-4 (Q9NWZ3 whole entry): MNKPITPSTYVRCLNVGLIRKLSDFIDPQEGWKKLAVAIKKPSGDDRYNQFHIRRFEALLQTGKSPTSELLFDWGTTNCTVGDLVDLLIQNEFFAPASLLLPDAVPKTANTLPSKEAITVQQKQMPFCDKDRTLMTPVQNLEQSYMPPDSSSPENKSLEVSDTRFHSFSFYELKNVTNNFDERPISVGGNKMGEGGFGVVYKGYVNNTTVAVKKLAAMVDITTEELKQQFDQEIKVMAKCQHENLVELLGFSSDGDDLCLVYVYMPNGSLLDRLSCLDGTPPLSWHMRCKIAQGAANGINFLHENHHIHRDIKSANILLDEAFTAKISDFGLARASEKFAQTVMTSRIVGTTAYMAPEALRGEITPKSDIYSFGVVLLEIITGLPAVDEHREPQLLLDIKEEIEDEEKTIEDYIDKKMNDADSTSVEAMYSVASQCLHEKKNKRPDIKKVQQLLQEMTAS

| Compound | IC50 [1] | IC50 [2] | also measured |
| --- | --- | --- | --- |
| Cc1ccc(-n2nc(C3CCN(Cc4ccsc4)CC3)cc2NC(=O)c2cnn3cccnc23)cc1 [Example 223, N-{1-(4-methylphenyl)-3-[1-(thiophen-3-ylmethyl)piperidin-4-yl]-1H-pyrazol-5-yl}pyrazolo[1,5-a]pyrimidine-3-carboxamide] | < 0.1 µM |  |  |
| N-(3-(4-(aminomethyl)cyclohexyl)-1-(p-tolyl)-1H-pyrazol-5-yl)pyrazolo[1,5-a]pyrimidine-3-carboxamide [Example 184] |  |  | IC50: < 0.1 µM |
| O=C(Nc1cc(C2CNC2)nn1-c1ccc(C2CC2)cc1F)c1cnn2cccnc12 [Example 87, N-(3-(azetidin-3-yl)-1-(4-cyclopropyl-2-fluorophenyl)-1H-pyrazol-5-yl)pyrazolo[1,5-a]pyrimidine-3-carboxamide] | < 0.1 µM |  |  |
| CN1CCC(c2cc(NC(=O)c3cnn4cccnc34)n(-c3ccc(Cl)cc3F)n2)CC1 [Example 50, N-(1-(4-chloro-2-fluorophenyl)-3-(1-methylpiperidin-4-yl)-1H-pyrazol-5-yl)pyrazolo[1,5-a]pyrimidine-3-carboxamide] |  | < 1 µM |  |
| O=C(Nc1cc(C2CCNCC2)nn1-c1nccs1)c1cnn2cccnc12 [Example 189, N-(3-(piperidin-4-yl)-1-(thiazol-2-yl)-1H-pyrazol-5-yl)pyrazolo[1,5-a]pyrimidine-3-carboxamide] | < 0.1 µM |  |  |
| Cc1ccc(-n2nc(C3CCC(C(F)(F)F)CC3)cc2NC(=O)c2cnn3cccnc23)cc1 (stereo not drawn) [Example 97, N-(1-(p-tolyl)-3-(4-(trifluoromethyl)cyclohexyl)-1H-pyrazol-5-yl)pyrazolo[1,5-a]pyrimidine-3-carboxamide] |  | > 1 µM |  |
| Cc1ccc(-n2nc(C3CCN(S(=O)(=O)c4ccc5ncsc5c4)CC3)cc2NC(=O)c2cnn3cccnc23)cc1 [Example 384, N-{3-[1-(1,3-benzothiazol-6-ylsulfonyl)piperidin-4-yl]-1-(4-methylphenyl)-1H-pyrazol-5-yl}pyrazolo[1,5-a]pyrimidine-3-carboxamide] |  | < 1 µM |  |
| CN1CCC(c2cc(NC(=O)c3cnn4cccnc34)n(-c3ccc(C4CC4)cn3)n2)CC1 [Example 147, N-(1-(5-cyclopropylpyridin-2-yl)-3-(1-methylpiperidin-4-yl)-1H-pyrazol-5-yl)pyrazolo[1,5-a]pyrimidine-3-carboxamide] | < 0.1 µM |  |  |
| Cc1ccc(-n2nc(C3CCN(C4CN(S(C)(=O)=O)C4)CC3)cc2NC(=O)c2cnn3cccnc23)cc1 [Example 244, N-[1-(4-methylphenyl)-3-{1-[1-(methylsulfonyl)azetidin-3-yl]piperidin-4-yl}-1H-pyrazol-5-yl]pyrazolo[1,5-a]pyrimidine-3-carboxamide] |  | < 1 µM |  |
| Cc1ccc(-n2nc(C3CCN(C4CN(C(=O)NC(C)(C)C)C4)CC3)cc2NC(=O)c2cnn3cccnc23)cc1 [Example 236, N-[3-{1-[1-(tert-butylcarbamoyl)azetidin-3-yl]piperidin-4-yl]-1-(4-methylphenyl)-1H-pyrazol-5-yl}pyrazolo[1,5-a]pyrimidine-3-carboxamide] |  | < 1 µM |  |
| Cc1cc(F)ccc1-n1nc(C2CCNCC2)cc1NC(=O)c1cnn2cccnc12 [Example 68, N-(1-(4-fluoro-2-methylphenyl)-3-(piperidin-4-yl)-1H-pyrazol-5-yl)pyrazolo[1,5-a]pyrimidine-3-carboxamide] |  | > 1 µM |  |
| Cc1ccc(-n2nc(C3CCN(C4CCC5CC54)CC3)cc2NC(=O)c2cnn3cccnc23)cc1 (stereo not drawn) [Example 254, N-[3-(1-bicyclo[3.1.0]hex-2-ylpiperidin-4-yl)-1-(4-methylphenyl)-1H-pyrazol-5-yl]pyrazolo[1,5-a]pyrimidine-3-carboxamide] | < 0.1 µM |  |  |
| Cc1ccc(-n2nc(-c3ccc(CO)nc3)cc2NC(=O)c2cnn3cccnc23)cc1 [Example 330, N-{3-[6-(hydroxymethyl)pyridin-3-yl]-1-(4-methylphenyl)-1H-pyrazol-5-yl}pyrazolo[1,5-a]pyrimidine-3-carboxamide] | < 0.1 µM |  |  |
| Cc1ccc(-n2nc(-c3ccc(CN4CCCC4)cc3)cc2NC(=O)c2cnn3cccnc23)cc1 [Example 143, N-(3-(4-(pyrrolidin-1-ylmethyl)phenyl)-1-(p-tolyl)-1H-pyrazol-5-yl)pyrazolo[1,5-a]pyrimidine-3-carboxamide] | < 0.1 µM |  |  |
| Cc1ccc(-n2nc(C3(C)CCNCC3)cc2NC(=O)c2cnn3cccnc23)cc1 [Example 91, N-(3-(4-methylpiperidin-4-yl)-1-(p-tolyl)-1H-pyrazol-5-yl)pyrazolo[1,5-a]pyrimidine-3-carboxamide] |  | < 1 µM |  |
| Cc1ccc(-n2nc(C3CCN(S(=O)(=O)c4cccc(C(F)(F)F)n4)CC3)cc2NC(=O)c2cnn3cccnc23)cc1 [Example 394, N-[1-(4-methylphenyl)-3-(1-{[6-(trifluoromethyl)pyridin-2-yl]sulfonyl}piperidin-4-yl)-1H-pyrazol-5-yl]pyrazolo[1,5-a]pyrimidine-3-carboxamide] |  | < 1 µM |  |
| Cc1ccc(-n2nc(C3CCNCC3)cc2NC(=O)c2cnn3cccnc23)cc1 [Example 7, N-(3-(piperidin-4-yl)-1-(p-tolyl)-1H-pyrazol-5-yl)pyrazolo[1,5-a]pyrimidine-3-carboxamide] | < 0.1 µM |  |  |
| Cc1ccc(-n2nc(C3CCN(S(=O)(=O)CCc4ccccc4)CC3)cc2NC(=O)c2cnn3cccnc23)cc1 [Example 395, N-[1-(4-methylphenyl)-3-{1-[(2-phenylethyl)sulfonyl]piperidin-4-yl}-1H-pyrazol-5-yl]pyrazolo[1,5-a]pyrimidine-3-carboxamide] |  | < 1 µM |  |
| O=C(Nc1cc(C2CCN(C3CCC3)CC2)nn1-c1ccc(F)cc1F)c1cnn2cccnc12 [Example 49, N-(3-(1-cyclobutylpiperidin-4-yl)-1-(2,4-difluorophenyl)-1H-pyrazol-5-yl)pyrazolo[1,5-a]pyrimidine-3-carboxamide] | < 0.1 µM |  |  |
| CS(=O)(=O)N1CCC(c2cc(NC(=O)c3cnn4cccnc34)n(-c3ccc(C=O)cn3)n2)CC1 [Example 165, N-(1-(5-formylpyridine-2-yl)-3-(1-(methylsulfonyl)piperidin-4-yl)-1H-pyrazol-5-yl)pyrazolo[1,5-a]pyrimidine-3-carboxamide] | < 0.1 µM |  |  |
| CCN1CCC(N2CCC(c3cc(NC(=O)c4cnn5cccnc45)n(-c4ccc(C)cn4)n3)CC2)CC1 [Example 279, N-[3-(1′-ethyl-1,4′-bipiperidin-4-yl)-1-(5-methylpyridin-2-yl)-1H-pyrazol-5-yl]pyrazolo[1,5-a]pyrimidine-3-carboxamide] | < 0.1 µM |  |  |
| Cc1ccc(-n2nc(-c3conc3C)cc2NC(=O)c2cnn3cccnc23)cc1 [Example 334, N-[3-(3-methylisoxazol-4-yl)-1-(4-methylphenyl)-1H-pyrazol-5-yl]pyrazolo[1,5-a]pyrimidine-3-carboxamide] |  | < 1 µM |  |
| Cc1ccc(-n2nc(C3CC3)cc2NC(=O)c2cnn3cccnc23)nc1 [Example 180, N-(3-cyclopropyl-1-(5-methylpyridin-2-yl)-1H-pyrazol-5-yl)pyrazolo[1,5-a]pyrimidine-3-carboxamide] |  | > 1 µM |  |
| Cc1cccc(-n2nc(C3CCN(S(C)(=O)=O)CC3)cc2NC(=O)c2cnn3cccnc23)c1 [Example 17, N-(3-(1-(methylsulfonyl)piperidin-4-yl)-1-(m-tolyl)-1H-pyrazol-5-yl)pyrazolo[1,5-a]pyrimidine-3-carboxamide] |  | < 1 µM |  |
